Tested on: RKO p21 uninduced (proliferating) colon adenocarcinoma cells
Test: Alamar Blue cell viability assay, RKO p21 uninduced (proliferating)
Format: cell-based
Details: Homo sapiens, Table B3, anti-proliferative/cytotoxic activity, 72 hours, read-out: −log EC50 RKO p21 uninduced (proliferating) (converted)
Summary of the method: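 RKO p21 or p27 subclones grown without Ponasterone A, i.e. proliferating, exposed 24 h after seeding to semi-log compound dilutions in DMEM/10% FCS (1% DMSO controls) for 72 h at 37° C. Alamar Blue fluorescence (544/590 nm) read relative to untreated cells; EC50 from dose-response curves, given as −log EC50 (mol/l).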

SMILES	EC50
CC(C)N(C)CCCN1C(=O)N2[C@H](c3cccc(O)c3)c3[nH]c4cc(F)c(Cl)cc4c3C[C@@]2(C)C1=O (racemic) [Example 474, (3aSR,10RS)-6-Chloro-7-fluoro-10-(3-hydroxy-phenyl)-2-[3-(isopropyl-methyl-amino)-propyl]-3a-methyl-3a,4,9,10-tetrahydro-2,9,10a-triaza-cyclopenta[b]fluorene-1,3-dione]	≤ 39.8 nM
CC1CCN(CCCN2C(=O)N3[C@H](c4cccc(O)c4)c4[nH]c5cc(F)c(Cl)cc5c4C[C@@]3(C)C2=O)CC1 (racemic) [Example 479, (3aSR,10RS)-6-Chloro-7-fluoro-10-(3-hydroxy-phenyl)-3a-methyl-2-[3-(4-methyl-piperidin-1-yl)-propyl]-3a,4,9,10-tetrahydro-2,9,10a-triaza-cyclopenta[b]fluorene-1,3-dione]	39.8 to 251 nM
CCN(CCO)CCCN1C(=O)N2[C@H](c3cccc(O)c3)c3[nH]c4ccc(OC)cc4c3C[C@@]2(C)C1=O [Example 543, (3aS,10R)-2-{3-[Ethyl-(2-hydroxy-ethyl)-amino]-propyl}-10-(3-hydroxy-phenyl)-6-methoxy-3a-methyl-3a,4,9,10-tetrahydro-2,9,10a-triaza-cyclopenta[b]fluorene-1,3-dione]	≤ 39.8 nM
CN(C)CCCN1C(=O)N2[C@H](c3cccc(O)c3)c3[nH]c4ccc(OC(F)F)cc4c3C[C@@]2(C)C1=O (racemic) [Example 314, (3aSR,10RS)-6-(1,1-Difluoro-methoxy)-2-(3-dimethylamino-propyl)-10-(3-hydroxy-phenyl)-3a-methyl-3a,4,9,10-tetrahydro-2,9,10a-triaza-cyclopenta[b]fluorene-1,3-dione]	≤ 39.8 nM
C[C@@]12Cc3c([nH]c4cc(F)c(Cl)cc34)[C@@H](c3cccc(O)c3)N1C(=O)N(CCCN1CCCCC1)C2=O (racemic) [Example 478, (3aSR,10RS)-6-Chloro-7-fluoro-10-(3-hydroxy-phenyl)-3a-methyl-2-(3-piperidin-1-yl-propyl)-3a,4,9,10-tetrahydro-2,9,10a-triaza-cyclopenta[b]fluorene-1,3-dione]	≤ 39.8 nM
CCN(C)CCN1C(=O)N2[C@H](c3cccc(O)c3)c3[nH]c4ccc(OC(F)F)cc4c3C[C@@]2(C)C1=O (racemic) [Example 275, (3aSR,10RS)-6-(1,1-Difluoro-methoxy)-2-[2-(ethyl-methyl-amino)-ethyl]-10-(3-hydroxy-phenyl)-3a-methyl-3a,4,9,10-tetrahydro-2,9,10a-triaza-cyclopenta[b]fluorene-1,3-dione]	≤ 39.8 nM
C=CCNCCCN1C(=O)N2[C@H](c3cccc(O)c3)c3[nH]c4ccc(OCC)cc4c3C[C@@]2(C)C1=O (racemic) [Example 191, (3aSR,10RS)-2-(3-Allylamino-propyl)-6-ethoxy-10-(3-hydroxy-phenyl)-3a-methyl-3a,4,9,10-tetrahydro-2,9,10a-triaza-cyclopenta[b]bluorene-1,3-dione]	39.8 to 251 nM
COCCNCCCN1C(=O)N2[C@H](c3cccc(O)c3)c3[nH]c4ccc(OC)cc4c3C[C@@]2(C)C1=O [Example 490, (3aS,10R)-10-(3-Hydroxy-phenyl)-6-methoxy-2-[3-(2-methoxy-ethylamino)-propyl]-3a-methyl-3a,4,9,10-tetrahydro-2,9,10a-triaza-cyclopenta[b]fluorene-1,3-dione]	≤ 39.8 nM
C[C@@]12Cc3c([nH]c4cc(F)c(Cl)cc34)[C@@H](c3cccc(O)c3)N1C(=O)N(CCCN1CC=CC1)C2=O (racemic) [Example 477, (3aSR,10RS)-6-Chloro-2-[3-(2,5-dihydro-pyrrol-1-yl)-propyl]-7-fluoro-10-(3-hydroxy-phenyl)-3a-methyl-3a,4,9,10-tetrahydro-2,9,10a-triaza-cyclopenta[b]fluorene-1,3-dione]	39.8 to 251 nM
CCOc1ccc2[nH]c3c(c2c1)C[C@@]1(C)C(=O)N(CCCN(C)CC)C(=O)N1[C@@H]3c1cccc(O)c1 (racemic) [Example 192, (3aSR,10RS)-6-Ethoxy-2-[3-(ethyl-methyl-amino)-propyl]-10-(3-hydroxy-phenyl)-3a-methyl-3a,4,9,10-tetrahydro-2,9,10a-triaza-cyclopenta[b]fluorene-1,3-dione]	39.8 to 251 nM
C=CCNCCN1C(=O)N2[C@H](c3cccc(O)c3)c3[nH]c4cc(F)c(Cl)cc4c3C[C@@]2(C)C1=O (racemic) [Example 346, (3aSR,10RS)-2-(2-Allylamino-ethyl)-6-chloro-7-fluoro-10-(3-hydroxy-phenyl)-3a-methyl-3a,4,9,10-tetrahydro-2,9,10a-triaza-cyclopenta[b]fluorene-1,3-dione]	≤ 39.8 nM
CC(C)NCCN1C(=O)N2[C@H](c3cccc(O)c3)c3[nH]c4ccc(Br)cc4c3C[C@@]2(C)C1=O (racemic) [Example 233, (3aSR,10RS)-6-Bromo-10-(3-hydroxy-phenyl)-2-(2-ispropylamino-ethyl)-3a-methyl-3a,4,9,10-tetrahydro-2,9,10a-triaza-cyclopenta[b]fluorene-1,3-dione]	≤ 39.8 nM
CCN(CCOC)CCN1C(=O)N2[C@H](c3cccc(O)c3)c3[nH]c4cc(F)c(OC)cc4c3C[C@@]2(C)C1=O (racemic) [Example 454, (3aSR,10RS)-2-{2-[Ethyl-(2-methoxy-ethyl)-amino]-ethyl}-7-fluoro-10-(3-hydroxy-phenyl)-6-methoxy-3a-methyl-3a,4,9,10-tetrahydro-2,9,10a-triaza-cyclopenta[b]fluorene-1,3-dione]	39.8 to 251 nM
COc1cc2c3c([nH]c2cc1F)[C@@H](c1cccc(O)c1)N1C(=O)N(CCN(C)CCO)C(=O)[C@]1(C)C3 [Example 246, (3aS,10R)-7-Fluoro-2-{2-[(2-hydroxy-ethyl)-methyl-amino]-ethyl}-10-(3-hydroxy-phenyl)-6-methoxy-3a-methyl-3a,4,9,10-tetrahydro-2,9,10a-triaza-cyclopenta[b]fluorene-1,3-dione]	39.8 to 251 nM
CCN(CCCN1C(=O)N2[C@H](c3cccc(O)c3)c3[nH]c4ccc(OC(F)F)cc4c3C[C@@]2(C)C1=O)CCOC (racemic) [Example 178, (3aSR,10RS)-6-(1,1-Difluoro-methoxy)-2-{3-[ethyl-(2-methoxy-ethyl)-amino]-propyl}-10-(3-hydroxy-phenyl)-3a-methyl-3a,4,9,10-tetrahydro-2,9,10a-triaza-cyclopenta[b]fluorene-1,3-dione]	≤ 39.8 nM
COc1cc2c3c([nH]c2cc1F)[C@@H](c1cccc(O)c1)N1C(=O)N(CCCN(C)C)C(=O)[C@]1(C)C3 (racemic) [Example 310, (3aSR,10RS)-2-(3-Dimethylamino-propyl)-7-fluoro-10-(3-hydroxy-phenyl)-6-methoxy-3a-methyl-3a,4,9,10-tetrahydro-2,9,10a-triaza-cyclopenta[b]fluorene-1,3-dione]	39.8 to 251 nM
C[C@@]12Cc3c([nH]c4ccc(OC(F)F)cc34)[C@@H](c3cccc(O)c3)N1C(=O)N(CCCN1CCCCCC1)C2=O (racemic) [Example 243, (3aSR,10RS)-2-(3-Azepan-1-yl-propyl)-6-(1,1-difluoro-methoxy)-10-(3-hydroxy-phenyl)-3a-methyl-3a,4,9,10-tetrahydro-2,9,10a-triaza-cyclopenta[b]fluorene-1,3-dione]	≤ 39.8 nM
C[C@@]12Cc3c([nH]c4cc(F)c(Cl)cc34)[C@@H](c3cccc(O)c3)N1C(=O)N(CCCN1CC=CCC1)C2=O (racemic) [Example 480, (3aSR,10RS)-6-Chloro-2-[3-(3,6-dihydro-2H-pyridin-1-yl)-propyl]-7-fluoro-10-(3-hydroxy-phenyl)-3a-methyl-3a,4,9,10-tetrahydro-2,9,10a-triaza-cyclopenta[b]fluorene-1,3-dione]	39.8 to 251 nM
CCOc1ccc2[nH]c3c(c2c1)C[C@@]1(C)C(=O)N(CCN(CC)CCO)C(=O)N1[C@@H]3c1cccc(O)c1 (racemic) [Example 298, (3aSR,10RS)-6-Ethoxy-2-{2-[ethyl-(2-hydroxy-ethyl)-amino]-ethyl}-10-(3-hydroxy-phenyl)-3a-methyl-3a,4,9,10-tetrahydro-2,9,10a-triaza-cyclopenta[b]fluorene-1,3-dione]	39.8 to 251 nM
COCCNCCCN1C(=O)N2[C@H](c3cccc(O)c3)c3[nH]c4cc(F)c(Cl)cc4c3C[C@@]2(C)C1=O (racemic) [Example 462, (3aSR,10RS)-6-Chloro-7-fluoro-10-(3-hydroxy-phenyl)-2-[3-(2-methoxy-ethylamino)-propyl]-3a-methyl-3a,4,9,10-tetrahydro-2,9,10a-triaza-cyclopenta[b]fluorene-1,3-dione]	≤ 39.8 nM
CCOc1ccc2[nH]c3c(c2c1)C[C@@]1(C)C(=O)N(CCCN2CCCCC2)C(=O)N1[C@@H]3c1cccc(O)c1 (racemic) [Example 223, (3aSR,10RS)-6-Ethoxy-10-(3-hydroxy-phenyl)-3a-methyl-2-(3-piperidin-1-yl-propyl)-3a,4,9,10-tetrahydro-2,9,10a-triaza-cyclopenta[b]fluorene-1,3-dione]	39.8 to 251 nM
C[C@@]12Cc3c([nH]c4ccc(Br)cc34)[C@@H](c3cccc(O)c3)N1C(=O)N(CCN1CCOCC1)C2=O (racemic) [Example 388, (3aSR,10RS)-6-Bromo-10-(3-hydroxy-phenyl)-3a-methyl-2-(2-morpholin-4-yl-ethyl)-3a,4,9,10-tetrahydro-2,9,10a-triaza-cyclopenta[b]fluorene-1,3-dione]	39.8 to 251 nM
CCNCCN1C(=O)N2[C@H](c3cccc(O)c3)c3[nH]c4cc(F)c(Cl)cc4c3C[C@@]2(C)C1=O (racemic) [Example 338, (3aSR,10RS)-6-Chloro-2-(2-ethylamino-ethyl)-7-fluoro-10-(3-hydroxy-phenyl)-3a-methyl-3a,4,9,10-tetrahydro-2,9,10a-triaza-cyclopenta[b]fluorene-1,3-dione]	≤ 39.8 nM
COc1ccc2[nH]c3c(c2c1F)C[C@@]1(C)C(=O)N(CCNC(C)(C)C)C(=O)N1[C@@H]3c1cccc(O)c1 (racemic) [Example 414, (3aSR,10RS)-2-(2-tert-Butylamino-ethyl)-5-fluoro-10-(3-hydroxy-phenyl)-6-methoxy-3a-methyl-3a,4,9,10-tetrahydro-2,9,10a-triaza-cyclopenta[b]fluorene-1,3-dinone]	39.8 to 251 nM

— patent US8530493B2, “Indolopyridines as Eg5 kinesin modulators” (4SC AG, priority 2006, dated 2013)
